In the assay the target is PI3K-alpha (Homo sapiens (Human), UniProt P42336). In words: HTRF PI3K biochemical assay, alpha isoform. The conditions noted are these: ratio PI3K-alpha IC50 value/PI3K-delta IC50 value. On the technique in general: TR-FRET usually uses a lanthanide donor and a delayed reading to cut background.

SMILES strings stand for the structures.

Sequence of PI3K-alpha (P42336 whole entry, looked up, canonical isoform): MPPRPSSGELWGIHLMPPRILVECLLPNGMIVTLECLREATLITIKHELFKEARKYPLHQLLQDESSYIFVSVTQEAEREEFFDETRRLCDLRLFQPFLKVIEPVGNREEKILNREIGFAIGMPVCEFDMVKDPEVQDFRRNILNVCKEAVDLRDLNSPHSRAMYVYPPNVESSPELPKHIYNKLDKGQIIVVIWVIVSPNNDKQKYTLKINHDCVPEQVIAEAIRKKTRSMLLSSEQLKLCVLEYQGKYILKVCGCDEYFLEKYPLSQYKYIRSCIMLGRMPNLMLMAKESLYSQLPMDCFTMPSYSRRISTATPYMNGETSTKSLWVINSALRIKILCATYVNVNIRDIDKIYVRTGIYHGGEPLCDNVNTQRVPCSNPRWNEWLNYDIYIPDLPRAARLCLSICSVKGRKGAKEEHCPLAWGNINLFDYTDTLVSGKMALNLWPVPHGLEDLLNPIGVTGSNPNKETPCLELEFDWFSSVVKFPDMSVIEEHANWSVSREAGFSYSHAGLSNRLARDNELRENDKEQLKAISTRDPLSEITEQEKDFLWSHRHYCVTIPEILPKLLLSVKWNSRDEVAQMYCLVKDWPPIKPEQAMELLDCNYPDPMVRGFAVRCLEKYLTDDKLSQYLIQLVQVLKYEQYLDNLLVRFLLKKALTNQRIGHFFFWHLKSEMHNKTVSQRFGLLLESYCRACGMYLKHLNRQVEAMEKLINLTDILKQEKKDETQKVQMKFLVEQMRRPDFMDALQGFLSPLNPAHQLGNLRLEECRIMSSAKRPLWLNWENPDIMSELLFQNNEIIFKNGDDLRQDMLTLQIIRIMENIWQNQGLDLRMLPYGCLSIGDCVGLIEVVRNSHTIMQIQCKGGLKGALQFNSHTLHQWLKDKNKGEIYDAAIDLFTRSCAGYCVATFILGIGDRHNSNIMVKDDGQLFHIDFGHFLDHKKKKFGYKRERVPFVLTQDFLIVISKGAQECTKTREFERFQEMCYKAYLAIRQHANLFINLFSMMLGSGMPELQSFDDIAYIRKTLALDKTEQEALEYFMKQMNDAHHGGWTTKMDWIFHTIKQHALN
Sequence of PI3K-alpha (P27986 whole entry partner, looked up, canonical isoform): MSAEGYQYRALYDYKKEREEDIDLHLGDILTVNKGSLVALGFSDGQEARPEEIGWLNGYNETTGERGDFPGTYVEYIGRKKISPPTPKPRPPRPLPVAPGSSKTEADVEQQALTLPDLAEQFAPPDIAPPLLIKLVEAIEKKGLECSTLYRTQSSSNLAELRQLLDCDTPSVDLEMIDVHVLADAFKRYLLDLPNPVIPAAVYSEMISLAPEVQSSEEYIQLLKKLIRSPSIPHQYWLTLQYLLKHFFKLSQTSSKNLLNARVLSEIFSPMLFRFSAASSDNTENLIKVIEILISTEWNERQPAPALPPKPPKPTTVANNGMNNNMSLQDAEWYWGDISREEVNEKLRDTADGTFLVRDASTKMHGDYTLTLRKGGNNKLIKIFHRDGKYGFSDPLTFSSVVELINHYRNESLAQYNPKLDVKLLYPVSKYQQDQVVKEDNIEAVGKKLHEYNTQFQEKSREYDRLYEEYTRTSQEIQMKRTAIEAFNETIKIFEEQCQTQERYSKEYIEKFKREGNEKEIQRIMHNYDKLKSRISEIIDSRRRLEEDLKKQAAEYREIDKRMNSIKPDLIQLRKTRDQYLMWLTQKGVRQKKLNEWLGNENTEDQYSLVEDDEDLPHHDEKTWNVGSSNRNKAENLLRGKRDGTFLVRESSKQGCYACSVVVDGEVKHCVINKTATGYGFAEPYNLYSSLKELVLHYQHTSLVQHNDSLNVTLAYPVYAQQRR

With `CCn1c(-c2cnc(C)nc2)nc2c(O[C@H]3CCN(C(=O)N(C)c4ccccc4)C3)ncnc21` [Compound 5-17, (3S)-3-{[9-ethyl-8-(2-methylpyrimidin-5-yl)-9H-purin-6-yl]oxy}-N-methyl-N-phenylpyrrolidine-1-carboxamide], the “Relative Selectivity versus PI3Kalpha” value is reported as greater than 10.

In the case of `CCC(=O)N1CC[C@H](Oc2ncnc3c2nc(C(F)(F)F)n3C)C1` [Compound 14-7, 9-methyl-6-{[(3S)-1-propanoylpyrrolidin-3-yl]oxy}-8-(trifluoromethyl)-9H-purine], the “Relative Selectivity versus PI3Kalpha” value is given as greater than 10. Turning to `CCC(=O)N1CC[C@H](Oc2ncnc3c2nc(Oc2cnc(C)nc2)n3C)C1` [Compound 12-3, 9-methyl-8-[(2-methylpyrimidin-5-yl)oxy]-6-{[(3S)-1-propanoylpyrrolidin-3-yl]oxy}-9H-purine], the “Relative Selectivity versus PI3Kalpha” value was greater than 10.

Regarding `CCn1c(-c2cnc(OC)c(F)c2)nc2c(O[C@H]3CCN(C(=O)C4CCOCC4)C3)ncnc21` [Compound 3-56, 9-ethyl-8-(5-fluoro-6-methoxypyridin-3-yl)-6-{[(3S)-1-(tetrahydro-2H-pyran-4-ylcarbonyl)pyrrolidin-3-yl]oxy}-9H-purine], the “Relative Selectivity versus PI3Kalpha” value was greater than 10. On to `CCn1ncc(-c2nc3c(O[C@H]4CCN(c5ncnc6sc(C)cc56)C4)ncnc3n2C)c1C` [Compound 7-2, 8-(1-ethyl-5-methyl-1H-pyrazol-4-yl)-9-methyl-6-{[(3S)-1-(6-methylthieno[2,3-d]pyrimidin-4-yl)pyrrolidin-3-yl]oxy}-9H-purine], for which the “Relative Selectivity versus PI3Kalpha” value was greater than 10. With `Cn1c(-c2ccc(N3CCOCC3)nc2)nc2c(O[C@H]3CCN(C(=O)OC(C)(C)C)C3)ncnc21` [Compound 1-24, tert-butyl (3S)-3-{[9-methyl-8-(6-morpholin-4-ylpyridin-3-yl)-9H-purin-6-yl]oxy}pyrrolidine-1-carboxylate], the “Relative Selectivity versus PI3Kalpha” value is reported as greater than 2. Turning to `CCn1c(-c2cnc(C)nc2)nc2c(OC3CN(C(=O)C4CC4)CC34CC4)ncnc21` (stereo not drawn) [Compound 3-64, (R— or S—)-6-{[5-(cyclopropylcarbonyl)-5-azaspiro[2.4]hept-7-yl]oxy}-9-ethyl-8-(2-methylpyrimidin-5-yl)-9H-purine], the “Relative Selectivity versus PI3Kalpha” value is listed as greater than 10. Consider `Cn1c(-c2ccc(O)cc2)nc2c(O[C@H]3CCN(C(=O)OC(C)(C)C)C3)ncnc21` [Compound 1-18, tert-butyl (3S)-3-{[8-(4-hydroxyphenyl)-9-methyl-9H-purin-6-yl]oxy}pyrrolidine-1-carboxylate], for which the “Relative Selectivity versus PI3Kalpha” value was greater than 10. Regarding `CCn1c(-c2cnc(C)nc2)nc2c(O[C@H]3CCN(C(=O)C4CC4)C3)ncnc21` [Compound 2-107, 6-{[(3S)-1-(cyclopropylcarbonyl)pyrrolidin-3-yl]oxy}-9-ethyl-8-(2-methylpyrimidin-5-yl)-9H-purine], the “Relative Selectivity versus PI3Kalpha” value is greater than 10. For `CCn1c(-c2cnc(OC)c(C)c2)nc2c(O[C@H]3CCN(C(=O)OC(C)(C)C)C3)ncnc21` [Compound 1-34, tert-butyl (3S)-3-{[9-ethyl-8-(6-methoxy-5-methylpyridin-3-yl)-9H-purin-6-yl]oxy}pyrrolidine-1-carboxylate], the “Relative Selectivity versus PI3Kalpha” value is recorded as greater than 10. In the case of `CCC(=O)N1CC[C@H](Oc2ncnc3c2nc(-c2cnc(OC)c(NS(C)(=O)=O)c2)n3C)C1` [Compound 3-38, N-[2-methoxy-5-(9-methyl-6-{[(3S)-1-propanoylpyrrolidin-3-yl]oxy}-9H-purin-8-yl)pyridin-3-yl]methanesulfonamide] it was greater than 10; in that of `CCn1c(-c2cnc(C)nc2)nc2c(OC3CN(C(=O)C4CC4)CC3CF)ncnc21` (single isomer, unassigned) [Compound 3-68, cyclopropyl([(3S,4R) or (3R,4S)]-3-((9-ethyl-8-(2-methylpyrimidin-5-yl)-9H-purin-6-yl)oxy)-4-(fluoromethyl)pyrrolidin-1-yl)methanone], greater than 10.

Source of the values: patent publication US9730940B2, “Purine inhibitors of human phosphatidylinositol 3-kinase delta” (priority 2012, dated 2017).
